Results reported in US11304944B2, “MetAP2 inhibitors and methods of treating obesity” (SynDevRx, Inc., priority 2013, dated 2022).
Where a name gives a salt, the structure may show the parent alone.

- melting point: 180 to 185 °C
SMILES: COC1C(OC(=O)N[C@H]2CC[C@H](N)CC2)CC[C@]2(CO2)C1[C@@]1(C)O[C@@H]1CC=C(C)C (stereo partly drawn) (as salt: tartrate) [Compound 1, Fumagill-6-yl [trans-(4-aminocyclohexyl)]carbamate]
